# Source: patent publication US8680010B2, “Synergistic herbicidal composition containing penoxsulam and florasulam” (Dow AgroSciences, LLC., priority 2011, dated 2014)
# Tests used:
# Type in all cases: in vivo
# [1] = tested on: common mallow (Malva neglecta Wallr.); test: Field weed control by penoxsulam plus florasulam, MALNE; conditions: 90 DAA
# Method: (§1) Field trials were conducted in olive tree crops in Spain using standard herbicide small plot research methodology. Plot size was typical for small plot research in tree crops, varying from 4 to 10 meters (m) wide by 4 to 10 m long. […] Soil types ranged from coarse to medium to fine soil texture. Perennial olive crops were transplanted by hand into orchards as per normal local cultural practices. The olive crop was grown using normal cultural practices for fertilization, watering and maintenance to ensure good growth of the crop and the weeds.
# (§2) Treatments were applied by backpack sprayer using either compressed air or CO2, at spray pressures at 300 kilopascals (kPa). Spray tips were typically Flat Fan Teejet nozzles, such as FanJet 120 or Teejet 11003 VP. Spray volumes were approximately 300 liters per hectare (L/ha). […]
# (§3) For each treatment, the appropriate formulated product amount to treat the plot area, to achieve the desired application rate, based on unit area of application (hectare), was calculated, measured, and mixed in water prior to applying with the backpack sprayer […]
# [2] = tested on: horseweed (Conyza canadensis (L.) Cronq.); test: Field weed control by penoxsulam plus florasulam, ERICA; conditions: 99-175 DAA
# Method: as §1, §2, §3
# [3] = tested on: henbit (Lamium amplexicaule L.); test: Field weed control by penoxsulam plus florasulam, LAMAM; conditions: 30-45 DAA
# Method: as §1
# (§4) Treatments were applied by backpack sprayer using either compressed air or CO2, at spray pressures at 300 kilopascals (kPa). Spray tips were typically Flat Fan Teejet nozzles, such as FanJet 120 or Teejet 11003 VP. Spray volumes were approximately 300 liters per hectare (L/ha). The weed spectrum included, but was not limited to, chamomile, (Anthemis cotula L., […]), field marigold (Calendula arvensis, CLDAR), henbit (Lamium amplexicaule L, LAMAM), annual sowthistle (Sonchus oleraceus L., SONOL), common mallow (Malva neglecta Wallr., MALNE), corn salad (Valerianella echinata, VLLEC), horseweed (Conyza canadensis (L.) Cronq., ERICA), field madder (Sherardia arvensis L., SHRAR), and sowthistle (Sonchus species, SONSS). Treatments were applied preemergence or early postemergence to the stage of the weeds. Olive tree spacings were typically rows that were 7 to 8 m apart, and trees in the row were from 4 to 6 m apart.
# (§5) For each treatment, the appropriate formulated product amount to treat the plot area, to achieve the desired application rate, based on unit area of application (hectare), was calculated, measured, and mixed in water prior to applying with the backpack sprayer
# (§6) Treatments were rated as compared to the untreated control plots.
# (§7) The treated plots and control plots were rated blind at various intervals after application. Ratings were based of Percent (%) Visual weed control, where 0 corresponds to no injury and 100 corresponds to complete kill.
# (§8) The following equation was used to calculate the expected activity of mixtures containing two active ingredients, A and B: Expected=A+B−(A×B/100)
# (§9) A=observed efficacy of active ingredient A at the same concentration as used in the mixture;
# (§10) B=observed efficacy of active ingredient B at the same concentration as used in the mixture.
# [4] = tested on: field marigold (Calendula arvensis); test: Field weed control by penoxsulam plus florasulam, CLDAR; conditions: 30-45 DAA
# Method: as §1, §2, §3
# [5] = tested on: sowthistle (Sonchus species); test: Field weed control by penoxsulam plus florasulam, SONSS; conditions: 99-175 DAA
# Method: as §1, §2, §3
# [6] = tested on: field madder (Sherardia arvensis L.); test: Field weed control by penoxsulam plus florasulam, SHRAR; conditions: 99-175 DAA
# Method: as §1, §2, §3
# [7] = tested on: chamomile, mayweed (Anthemis cotula L.); test: Field weed control by penoxsulam plus florasulam, ANTCO; conditions: 30-45 DAA
# Method: as §1, §4, §5, §6, §7, §8, §9, §10
# [8] = tested on: annual sowthistle (Sonchus oleraceus L.); test: Field weed control by penoxsulam plus florasulam, SONOL; conditions: 30-45 DAA
# Method: as §1, §4, §5, §6, §7, §8, §9, §10
# [9] = tested on: corn salad (Valerianella echinata); test: Field weed control by penoxsulam plus florasulam, VLLEC; conditions: 90 DAA
# Method: as §1, §4, §5, §6, §7, §8, §9, §10
compound,measurement,setting,value
COc1cnc(OC)n2nc(NS(=O)(=O)c3c(OCC(F)F)cccc3C(F)(F)F)nc12 [Penoxsulam],% Control MALNE Obs,[1]; penoxsulam 10 gai/ha,8%
same,% Control ERICA Obs,[2]; penoxsulam 20 gai/ha,23%
same,% Control LAMAM Obs,[3]; penoxsulam 10 gai/ha,0%
same,% Control LAMAM Obs,[3]; penoxsulam 13 gai/ha,0%
same,% Control LAMAM Obs,[3]; penoxsulam 15 gai/ha,4%
same,% Control CLDAR Obs,[4]; penoxsulam 10 gai/ha,5%
same,% Control SONSS Obs,[5]; penoxsulam 20 gai/ha,53%
same,% Control SHRAR Obs,[6]; penoxsulam 20 gai/ha,0%
same,% Control ANTCO Obs,[7]; penoxsulam 10 gai/ha,0%
same,% Control ANTCO Obs,[7]; penoxsulam 13 gai/ha,5%
same,% Control ANTCO Obs,[7]; penoxsulam 15 gai/ha,5%
same,% Control SONOL Obs,[8]; penoxsulam 10 gai/ha,0%
same,% Control SONOL Obs,[8]; penoxsulam 13 gai/ha,2%
same,% Control SONOL Obs,[8]; penoxsulam 15 gai/ha,5%
same,% Control VLLEC Obs,[9]; penoxsulam 10 gai/ha,80%
same,% Control VLLEC Obs,[9]; penoxsulam 13 gai/ha,80%
"COc1ncc(F)c2nc(S(=O)(=O)Nc3c(F)cccc3F)nn12 [Florasulam, N-(2,6-difluorophenyl)-8-fluoro-5-methoxy[1,2,4]-triazolo[1,5-c]pyrimidine-2-sulfonamide]",% Control MALNE Obs,[1]; florasulam 5 gai/ha,50%
same,% Control ERICA Obs,[2]; florasulam 7.5 gai/ha,51%
same,% Control LAMAM Obs,[3]; florasulam 5 gai/ha,5%
same,% Control LAMAM Obs,[3]; florasulam 6.3 gai/ha,30%
same,% Control LAMAM Obs,[3]; florasulam 7.5 gai/ha,30%
same,% Control CLDAR Obs,[4]; florasulam 5 gai/ha,40%
same,% Control SONSS Obs,[5]; florasulam 7.5 gai/ha,8%
same,% Control SHRAR Obs,[6]; florasulam 7.5 gai/ha,0%
same,% Control ANTCO Obs,[7]; florasulam 5 gai/ha,50%
same,% Control ANTCO Obs,[7]; florasulam 6.3 gai/ha,69%
same,% Control ANTCO Obs,[7]; florasulam 7.5 gai/ha,95%
same,% Control SONOL Obs,[8]; florasulam 5 gai/ha,50%
same,% Control SONOL Obs,[8]; florasulam 6.3 gai/ha,60%
same,% Control SONOL Obs,[8]; florasulam 7.5 gai/ha,60%
same,% Control VLLEC Obs,[9]; florasulam 5 gai/ha,10%
same,% Control VLLEC Obs,[9]; florasulam 6.3 gai/ha,10%
